The values below come from patent US20240425491A1, “HETEROARYL COMPOUNDS USEFUL IN THE TREATMENT OF COGNITIVE DISORDERS” (University College Cardiff Consultants Limited, priority 2021, published 2024).

Usually Ki stands for a measure of affinity in units of concentration, obtained from inhibition or displacement.

Assay [1] has as its target T1, human recombinant GABAAR containing α5β3γ2 subunits (benzodiazepine site) (Homo sapiens, UniProt P18507+P31644).
T1 construct: expressed in transfected cells; host or cells: mouse L(tk−) cells, dexamethasone-inducible vector pMSGneo
The experiment in a line: In vitro radioligand binding assay (α5-GABAAR Ki). Conditions: inhibition of [3H]Ro15-1788 binding, membranes of L(tk−) cells expressing human α5β3γ2; read-out: α5-GABAAR Ki. The method, boiled down: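 Displacement of 4 nM [^3H]flumazenil from the benzodiazepine site, read by filtration and scintillation, gave IC50, converted to Ki (Cheng-Prusoff, saturation-derived Kd). Receptor: human α5β3γ2 membranes from L(tk^−) cells, 50 μg protein/well; 1 h, 4° C; TP003 1 μM defined nonspecific binding.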

The target in assay [2] is T2, human α5β3γ2 GABAARs in mouse L(tk−) cells (Homo sapiens, UniProt P18507+P31644).
T2 construct: expressed in transfected cells; host or cells: mouse L(tk−) cells, dexamethasone-inducible vector pMSGneo
T2 sequence (P31644 32-462): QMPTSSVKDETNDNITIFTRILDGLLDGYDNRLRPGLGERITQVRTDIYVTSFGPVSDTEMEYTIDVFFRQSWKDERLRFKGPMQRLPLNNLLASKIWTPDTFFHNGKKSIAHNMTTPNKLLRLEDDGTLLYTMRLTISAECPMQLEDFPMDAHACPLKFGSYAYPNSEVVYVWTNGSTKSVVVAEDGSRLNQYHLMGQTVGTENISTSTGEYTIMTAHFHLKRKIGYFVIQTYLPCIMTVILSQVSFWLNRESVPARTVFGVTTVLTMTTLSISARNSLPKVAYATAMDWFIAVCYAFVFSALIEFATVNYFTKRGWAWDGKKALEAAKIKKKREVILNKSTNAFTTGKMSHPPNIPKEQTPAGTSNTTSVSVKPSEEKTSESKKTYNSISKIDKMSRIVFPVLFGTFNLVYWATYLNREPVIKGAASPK
T2 sequence (P28472 26-473 partner): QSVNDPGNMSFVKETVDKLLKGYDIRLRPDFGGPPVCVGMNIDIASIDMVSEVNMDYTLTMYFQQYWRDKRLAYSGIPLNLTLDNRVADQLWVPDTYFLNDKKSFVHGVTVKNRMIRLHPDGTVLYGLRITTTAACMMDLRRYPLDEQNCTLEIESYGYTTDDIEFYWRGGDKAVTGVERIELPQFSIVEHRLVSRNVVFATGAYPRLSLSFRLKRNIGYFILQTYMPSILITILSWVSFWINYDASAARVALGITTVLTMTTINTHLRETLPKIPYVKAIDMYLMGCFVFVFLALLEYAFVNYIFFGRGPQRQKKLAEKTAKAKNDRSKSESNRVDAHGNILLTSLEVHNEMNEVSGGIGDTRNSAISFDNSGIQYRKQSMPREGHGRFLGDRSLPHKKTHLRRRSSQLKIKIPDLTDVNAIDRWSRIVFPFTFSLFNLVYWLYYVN
T2 sequence (P18507 40-475): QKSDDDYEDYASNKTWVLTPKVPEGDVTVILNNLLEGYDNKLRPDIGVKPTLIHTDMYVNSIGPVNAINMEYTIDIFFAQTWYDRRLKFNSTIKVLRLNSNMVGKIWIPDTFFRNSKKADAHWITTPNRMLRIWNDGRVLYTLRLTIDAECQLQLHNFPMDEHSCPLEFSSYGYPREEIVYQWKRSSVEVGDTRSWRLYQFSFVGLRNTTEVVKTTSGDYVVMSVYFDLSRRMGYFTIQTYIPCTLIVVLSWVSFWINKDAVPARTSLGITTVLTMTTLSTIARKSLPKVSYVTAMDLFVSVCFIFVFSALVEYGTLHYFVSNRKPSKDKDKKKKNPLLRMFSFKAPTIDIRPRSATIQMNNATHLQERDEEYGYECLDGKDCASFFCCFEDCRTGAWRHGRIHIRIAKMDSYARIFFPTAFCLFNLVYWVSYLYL
The experiment in a line: In vitro electrophysiological recording assay (α5-GABAAR relative efficacy), QPatch. Conditions: GABA EC10-20. It is filed as cell-based. The source says:
Mouse L(tk^−) cells stably expressing human α1β3γ2, α2β3γ2, α3β3γ2, α5β3γ2 GABAARs generated by transfection of the individual subunits in the dexamethasone-inducible expression vector pMSGneo in mouse L(tk^−) cells (Hadingham et al., 1993, Mol. Pharmacol. 43:970-975 and 1993, Mol. Pharmacol. 44:1211-1218) were used for binding and functional assays. For certain compounds, HEK293 cells stable expressing the human α1β3γ2L, α2β3γ2L, α3β3γ2L and α5β3γ2L GABAA receptors were used to evaluate their functional effects in a SyncroPatch electrophysiology assay.
For QPatch electrophysiology testing, 1 μM dexamethasone was added to the culture medium of L(tk^−) cells 24 hours before the recordings were performed. Cells were typically used for electrophysiology experiments 72-96 hours after splitting.
The efficacy of modulators was evaluated using either the automated patch-clamp platform QPatch16 (Sophion, Copenhagen, Denmark) or the SyncroPatch 384i (Nanion Technologies, Germany). Cells were harvested from flasks by enzymatic dissociation and re-suspended in serum-free medium.
For QPatch recordings, all experiments were carried out at room temperature (20-22° C.) using a standard whole cell procedure and physiological solutions. Gigaseals were formed upon execution of a combined suction/voltage protocol with subsequent increased suction leading to the whole-cell configuration. The currents recorded were acquired at 1 KHz and filtered at 0.3 KHz using a Bessel filter. Whole-cell currents were measured at a holding potential of −65 mV.
For QPatch recordings, the extracellular solution contained of (in mM): 145 NaCl, 4 KCl, 1 MgCl2, 2CaCl2, 10 HEPES, 10 D-glucose (pH 7.4), and the intracellular solution consisted of (in mM): 96 KCl, 28 CsCl, 25 KOH, 4.3 CaCl2), 1.4 MgCl2, 10 EGTA, HEPES, 3 MgATP (pH 7.2). The osmolarities of the extracellular and intracellular solutions were 305 and 295 mOsm respectively.
The effects of modulators were evaluated in the presence of a submaximal GABA concentration, giving typically 10-20% activation (GABA EC10-20) of the response elicited by a saturating GABA concentration. For QPatch recordings, to check and ensure baseline current stability before compound addition, five consecutive applications of GABA EC10-20 alone (each application with a 2 s duration, separated by minimum 1 min wash off periods) were performed before compound addition. The test compound was applied using the pipetting system of the QPatch system 1 min at least prior to co-application with GABA EC10-20. For SyncroPatch recordings, GABA EC20 alone was applied three times (1 s long applications, with wash steps in-between) before compound addition. This was followed by a 1-2 min pre-incubation with the test compound and then re-application of GABA EC10-20 in the presence of the compound. Finally, following a further wash step, a saturating concentration of GABA was applied, allowing the accurate evaluation for each cell of the percentage baseline activation elicited by the submaximal GABA applied.
The compounds were first dissolved in DMSO as a 10 mM stock and then further diluted to the testing concentrations so that the final DMSO concentration in the extracellular recording solution was kept constant at 0.1% for the QPatch recordings, or 0.2% for the SyncroPatch recordings.
The % efficacy of modulators was determined from the GABA elicited currents recorded in the presence and absence of the test compound, using the formula:
[((compound peak current−leak)−(GABA peak current−leak))/(GABA peak current−leak)]*100,
where ‘leak’ is the leak baseline current at −65 mV, ‘compound peak current’ is the current elicited by co-application of compound and GABA, and ‘GABA peak current’ is the current elicited by GABA alone during the 5th GABA application. The results were presented as ‘relative efficacy’ for each compound generally at a concentration equal or higher than 100 times their determined Ki. […]

T1 sequence (P31644 32-462): as the sequence (P31644 32-462) above
T1 sequence (P28472 26-473 partner): as the sequence (P28472 26-473 partner) above
T1 sequence (P18507 40-475): as the sequence (P18507 40-475) above

Regarding `COc1cc(-c2c(C)noc2C)cnc1NC(=O)c1c(-c2ccccc2)noc1C` [Example 14, N-[5-(3,5-Dimethylisoxazol-4-yl)-3-methoxy-2-pyridyl]-5-methyl-3-phenyl-isoxazole-4-carboxamide], in assay [1], the Ki worked out at 50 nM. Also, the “α5-GABAAR Relative Efficacy (to DMCM), Qpatch” value (“α5-GABAAR Relative Efficacy” for short) in assay [2] (Conc 10 μM) is recorded as −0.24.

On to `COc1cc(-c2cnn(C)c2)cnc1NC(=O)c1c(-c2ccccc2)noc1C` [Example 15, N-[3-Methoxy-5-(1-methylpyrazol-4-yl)-2-pyridyl]-5-methyl-3-phenyl-isoxazole-4-carboxamide], for which the Ki in assay [1] was 7 nM. Also, in assay [2] (Conc 1 μM), the “α5-GABAAR Relative Efficacy” value was −0.19.

With `COc1nc(-c2cnc(C3CC3)nc2)ccc1NC(=O)c1c(-c2ccccc2)noc1C` [Example 17, N-[6-(2-Cyclopropylpyrimidin-5-yl)-2-methoxy-3-pyridyl]-5-methyl-3-phenyl-isoxazole-4-carboxamide], in assay [1], the Ki worked out at 10.8 nM. Besides, the “α5-GABAAR Relative Efficacy” value in assay [2] (Conc 3 μM) is −0.81.

For the molecule `COc1cc(-c2cn[nH]c2)cnc1NC(=O)c1c(-c2ccccc2)noc1C` [Example 18, N-[3-Methoxy-5-(1H-pyrazol-4-yl)-2-pyridyl]-5-methyl-3-phenyl-isoxazole-4-carboxamide], the Ki in assay [1] came out at 2.8 nM. In assay [2] (Conc 0.3 μM), the “α5-GABAAR Relative Efficacy” value is −0.61.

Take `COc1nc(-c2cnn(C)c2)cnc1NC(=O)c1c(-c2ccccc2)noc1C` [Example 19, N-[3-Methoxy-5-(1-methylpyrazol-4-yl)pyrazin-2-yl]-5-methyl-3-phenyl-isoxazole-4-carboxamide]: the Ki in assay [1] is 4.3 nM. Also, the “α5-GABAAR Relative Efficacy” value in assay [2] (Conc 1 μM) is listed as −0.86.

On to `COc1nc(-c2cn(C)nc2C)ccc1NC(=O)c1c(-c2ccccc2)noc1C` [Example 20, N-[6-(1,3-Dimethylpyrazol-4-yl)-2-methoxy-3-pyridyl]-5-methyl-3-phenyl-isoxazole-4-carboxamide], for which the Ki in assay [1] is 13.9 nM. The “α5-GABAAR Relative Efficacy” value in assay [2] (Conc 3 μM) was −0.28.

With `COc1nc(-c2cnn(C(C)C)c2)ccc1NC(=O)c1c(-c2ccccc2)noc1C` [Example 21, N-[6-(1-Isopropylpyrazol-4-yl)-2-methoxy-3-pyridyl]-5-methyl-3-phenyl-isoxazole-4-carboxamide], the Ki in assay [1] was determined as 20.5 nM. The “α5-GABAAR Relative Efficacy” value in assay [2] (Conc 3 μM) was −0.48.

With `COc1nc(-c2c(C)nn(C)c2C)ccc1NC(=O)c1c(-c2ccccc2)noc1C` [Example 22, N-[2-Methoxy-6-(1,3,5-trimethylpyrazol-4-yl)-3-pyridyl]-5-methyl-3-phenyl-isoxazole-4-carboxamide], the Ki in assay [1] stood at 15.8 nM. Also, the “α5-GABAAR Relative Efficacy” value in assay [2] (Conc 3 μM) is on record as 0.15.

As to `COc1nc(-c2ccnn2C)ccc1NC(=O)c1c(-c2ccccc2)noc1C` [Example 23, N-[2-Methoxy-6-(2-methylpyrazol-3-yl)-3-pyridyl]-5-methyl-3-phenyl-isoxazole-4-carboxamide], the Ki in assay [1] turned out to be 2.4 nM. In addition, the “α5-GABAAR Relative Efficacy” value in assay [2] (Conc 0.3 μM) is given as −0.46.

Take `COc1nc(-c2cn[nH]c2)ccc1NC(=O)c1c(-c2ccccc2)noc1C` [Example 26, N-[2-Methoxy-6-(1H-pyrazol-4-yl)-3-pyridyl]-5-methyl-3-phenyl-isoxazole-4-carboxamide]: the Ki in assay [1] is 8 nM. Besides, the “α5-GABAAR Relative Efficacy” value in assay [2] (Conc 1 μM) is reported as −0.68.

Turning to `COc1nc(-c2ccc(CO)nc2)ccc1NC(=O)c1c(-c2ccccc2)noc1C` [Example 27, N-[6-[6-(Hydroxymethyl)-3-pyridyl]-2-methoxy-3-pyridyl]-5-methyl-3-phenyl-isoxazole-4-carboxamide], in assay [1], the Ki worked out at 2.3 nM. In addition, in assay [2] (Conc 0.3 μM), the “α5-GABAAR Relative Efficacy” value is −0.83.

Turning to `COc1nc(-c2ccc(=O)n(C)c2)ccc1NC(=O)c1c(-c2ccccc2)noc1C` [Example 28, N-[2-Methoxy-6-(1-methyl-6-oxo-3-pyridyl)-3-pyridyl]-5-methyl-3-phenyl-isoxazole-4-carboxamide], in assay [1], the Ki turned out to be 5.2 nM. Also, the “α5-GABAAR Relative Efficacy” value in assay [2] (Conc 1 μM) was −0.61.

With `COc1cc(-c2cccc3nccn23)cnc1NC(=O)c1c(-c2ccccc2)noc1C` [Example 29, N-(5-Imidazo[1,2-a]pyridin-5-yl-3-methoxy-2-pyridyl)-5-methyl-3-phenyl-isoxazole-4-carboxamide], the Ki in assay [1] was 1.5 nM. For the same molecule, the “α5-GABAAR Relative Efficacy” value in assay [2] (Conc 0.3 μM) is recorded as −0.53.

Turning to `COc1nc(-c2cccc3nccn23)ccc1NC(=O)c1c(-c2ccccc2)noc1C` [Example 30, N-(6-Imidazo[1,2-a]pyridin-5-yl-2-methoxy-3-pyridyl)-5-methyl-3-phenyl-isoxazole-4-carboxamide], the Ki in assay [1] turned out to be 5.1 nM. The “α5-GABAAR Relative Efficacy” value in assay [2] (Conc 1 μM) is on record as −0.42.

For `COc1nc(-c2ccc3[nH]nc(N)c3c2)ccc1NC(=O)c1c(-c2ccccc2)noc1C` [Example 33, N-[6-(3-Amino-1H-indazol-5-yl)-2-methoxy-3-pyridyl]-5-methyl-3-phenyl-isoxazole-4-carboxamide], the Ki in assay [1] is 15.8 nM. In addition, the “α5-GABAAR Relative Efficacy” value in assay [2] (Conc 3 μM) is given as −0.50.

Take `COc1nc(-c2cccnc2)ccc1NC(=O)c1c(-c2ccccc2)noc1C` [Example 37, N-(6-Methoxy-[2,3′-bipyridin]-5-yl)-5-methyl-3-phenylisoxazole-4-carboxamide]: in assay [1], the Ki is 2.8 nM. Moreover, the “α5-GABAAR Relative Efficacy” value in assay [2] (Conc 0.3 μM) is on record as −0.56.

Turning to `COc1nc(-c2cncc(N)n2)ccc1NC(=O)c1c(-c2ccccc2)noc1C` [Example 40, N-[6-(6-Aminopyrazin-2-yl)-2-methoxy-3-pyridyl]-5-methyl-3-phenyl-isoxazole-4-carboxamide], the Ki in assay [1] is 6.9 nM. The “α5-GABAAR Relative Efficacy” value in assay [2] (Conc 1 μM) is −0.57.

With `COc1ncc(-c2ccc(NC(=O)c3c(-c4ccccc4)noc3C)c(OC)n2)cn1` [Example 41, N-(2-Methoxy-6-(2-methoxypyrimidin-5-yl)pyridin-3-yl)-5-methyl-3-phenyl-isoxazole-4-carboxamide], the Ki in assay [1] was 1.8 nM. In addition, the “α5-GABAAR Relative Efficacy” value in assay [2] (Conc 0.3 μM) is listed as −0.87.

As for `COc1nc(-c2ccncc2)ccc1NC(=O)c1c(-c2ccccc2)noc1C` [Example 42, N-(6-Methoxy-[2,4′-bipyridin]-5-yl)-5-methyl-3-phenylisoxazole-4-carboxamide], the Ki in assay [1] turned out to be 2.8 nM. Besides, the “α5-GABAAR Relative Efficacy” value in assay [2] (Conc 0.3 μM) is given as −0.60.

With `COc1nc(-n2ccnc2)cnc1NC(=O)c1c(-c2ccccc2)noc1C` [Example 44, N-(5-Imidazol-1-yl-3-methoxy-pyrazin-2-yl)-5-methyl-3-phenyl-isoxazole-4-carboxamide], the Ki in assay [1] was 3.6 nM. The “α5-GABAAR Relative Efficacy” value in assay [2] (Conc 1 μM) is listed as −0.69.

On to `COc1nc(-c2cnc(N(C)C)nc2)ccc1NC(=O)c1c(-c2ccccc2)noc1C` [Example 45, N-(6-(2-(Dimethylamino)pyrimidin-5-yl)-2-methoxypyridin-3-yl)-5-methyl-3-phenylisoxazole-4-carboxamide], for which, in assay [1], the Ki came to 1.2 nM. Besides, in assay [2] (Conc 0.3 μM), the “α5-GABAAR Relative Efficacy” value is −0.65.
